Legend:
MT4 = assay: Compound dose required to achieve protection of MT-4 cells from HIV-1 induced cytopathicity using MTT method; type: functional, cell-based; conditions: Homo sapiens
[1] = Compound dose required to reduce viability of mock infected cells using MTT method; type: functional
[2] = Selectivity index is ratio of CC50 to that of EC50; type: functional
[3] = biological target: Human immunodeficiency virus type 1 reverse transcriptase (Human immunodeficiency virus 1, UniProt Q72547); assay: Compound dose required to inhibit HIV-1 reverse transcriptase enzyme(rRT) activity

**Q.** For `Clc1ccc(C(OCCn2ccnc2)c2ccc(Cl)cc2Cl)cc1` (centres undefined), which EC50 (MT4) is on record?
**A.** > 26 µM

**Q.** And the CC50 [1]?
**A.** 26 µM

**Q.** With `Cc1ccnc2c1NC(=O)c1cccnc1N2C1CC1` [NEVIRAPINE] as the compound, how does the CC50 [1] read?
**A.** > 300 µM

**Q.** What about the S.I [2] of the same compound?
**A.** > 1000

**Q.** Which EC50 (MT4) does the source give for `Cc1ccc(C(OCCn2c([N+](=O)[O-])cnc2C)c2ccccc2)cc1` (centres undefined) here?
**A.** 1.4 µM

**Q.** What about the IC50 [3] of the same compound?
**A.** 2.1 µM

**Q.** What about the CC50 [1] of the same compound?
**A.** 86 µM

**Q.** And the S.I [2]?
**A.** 61

**Q.** Which EC50 (MT4) does the source give for `Cc1ncc([N+](=O)[O-])n1CCOC(c1ccccc1)c1ccc(F)cc1` (centres undefined) here?
**A.** 0.9 µM

**Q.** And the IC50 [3]?
**A.** 2.3 µM

**Q.** What about the CC50 [1] of the same compound?
**A.** > 200 µM

**Q.** And the S.I [2]?
**A.** 222

**Q.** What does the source list for `Cc1ncc([N+](=O)[O-])n1CCOC(c1ccccc1)c1ccc(-c2ccccc2)cc1` (centres undefined)?
**A.** EC50 (MT4): 17 µM; CC50 [1]: > 200 µM; S.I [2]: 12

**Q.** What does the source list for `Cc1ncc([N+](=O)[O-])n1CCOC(c1ccccc1)c1ccc(C(C)(C)C)cc1` (centres undefined)?
**A.** EC50 (MT4): 4 µM; IC50 [3]: 1.5 µM; CC50 [1]: 44 µM; S.I [2]: 11

**Q.** With `c1ccc(C(OCCn2ccnc2)c2ccccc2)cc1` as the compound, how does the EC50 (MT4) read?
**A.** > 100 µM

**Q.** What about the CC50 [1] of the same compound?
**A.** 100 µM

**Q.** For `Cc1ncc([N+](=O)[O-])n1CCOC(c1ccccc1)c1ccc(Cl)cc1` (centres undefined), which EC50 (MT4) is on record?
**A.** 12.5 µM

**Q.** And the CC50 [1]?
**A.** > 200 µM

**Q.** And the S.I [2]?
**A.** > 16

**Q.** For `Clc1ccc(C(OCCn2ccnc2)c2ccccc2)c(Cl)c1` (centres undefined), which EC50 (MT4) is on record?
**A.** > 31 µM

**Q.** What about the CC50 [1] of the same compound?
**A.** 31 µM

**Q.** With `Cc1ncc([N+](=O)[O-])n1CCOC(c1ccccc1)c1ccc(Cl)cc1Cl` (centres undefined) as the compound, how does the EC50 (MT4) read?
**A.** 1.5 µM

**Q.** And the IC50 [3]?
**A.** 1.4 µM

**Q.** What about the CC50 [1] of the same compound?
**A.** 54 µM

**Q.** What about the S.I [2] of the same compound?
**A.** 36

**Q.** Which EC50 (MT4) does the source give for `Cc1ncc([N+](=O)[O-])n1CCOC(c1ccccc1)c1ccccc1` here?
**A.** 0.2 µM

**Q.** And the IC50 [3]?
**A.** 0.05 µM

**Q.** What about the CC50 [1] of the same compound?
**A.** > 200 µM

**Q.** What about the S.I [2] of the same compound?
**A.** > 1000
